Laboratory results: patent US6906098B2, “Mixed steroidal 1,2,4,5-tetraoxane compounds and methods of making and using thereof” (priority 2002, dated 2005)
Converted amounts (≈) assume the structure as drawn. Read-outs that look alike come from different tables or passages of the source.

Legend:
[1] = system: Plasmodium falciparum chloroquine-susceptible strain D6; experiment: In vitro antimalarial drug susceptibility assay (radiolabeled hypoxanthine incorporation), strain D6; type: cell-based; settings: for Strain D6 IC50: growth inhibition, chloroquine-susceptible strain D6, 66 h incubation; for IC50: Plasmodium falciparum, D6, 66 h, read-out: Strain D6 IC50, growth inhibition, chloroquine-susceptible strain D6, 66 h incubation
[2] = system: Plasmodium falciparum chloroquine-resistant strain W2; experiment: microbe, parasite or virus in culture; type: cell-based; settings: for Strain W2 IC50: growth inhibition, chloroquine-resistant strain W2, 66 h incubation; for IC50: Plasmodium falciparum, W2, 66 h, read-out: Strain W2 IC50, growth inhibition, chloroquine-resistant strain W2, 66 h incubation
[3] = system: D6 and W2 P. falciparum clones; type: cell-based, Plasmodium falciparum; settings: for Resistance Index: IC50 (W2)/IC50 (D6) ratio
[4] = system: Mycobacterium tuberculosis H37Rv (ATCC 27294); experiment: Primary screen, Microplate Alamar Blue Assay (MABA), percent inhibition; type: cell-based; settings: primary screening at 6.25 μg/ml; for inhibition at 6.25 µg/mL: Mycobacterium tuberculosis
Experimental: (§1) The activity of the compounds of the present invention against Mycobacterium tuberculosis was determined using the following assays conducted by the National Institute of Allergy and Infectious Diseases (NIAID) supports a TB drug acquisition and screening program, the TAACF.
To determine the percent inhibition the following assay was conducted. Primary screening was conducted at 6.25 μg/ml (or the molar equivalent of highest molecular weight compound in a given series of congeners) against Mycobacterium tuberculosis H37Rv (ATCC 27294) in BACTEC 12B medium using the Microplate Alamar Blue Assay (MABA). See Collins, L. and S. G. Franzblau. 1997. Microplate alamar blue assay versus BACTEC 460 system for high-throughput screening of compounds against Mycobacterium tuberculosis and Mycobacterium avium. Antimicrob Agents Chemother 41:1004-9, which is herein incorporated by reference.
Minimum compound requirements: 1.0 mg.

M. tuberculosis H37Rv = experiment: Minimum inhibitory concentration (MIC) in the MABA; type: cell-based, Mycobacterium tuberculosis
Experimental: as §1
2. Minimum Inhibitory Concentration (MIC)
The MIC is defined as the lowest concentration effecting a reduction in fluorescence of 90% relative to controls. Minimum compound requirements: 1.0 mg.

[5] = Table 5, Alamar assay, M. tuberculosis H37Rv
[6] = Table 3, H37Rv, read-out: Inhibition (%)
[7] = Table 5, Alamar assay, read-out: % Inhib
[8] = Mycobacterium tuberculosis, H37RV, Table 3, H37Rv, read-out: MIC
[9] = Mycobacterium tuberculosis, H37RV, Table 5, Alamar assay, M. tuberculosis H37Rv, read-out: MIC

CCNC(=O)CCC(C)[C@H]1CCC2C3C(C[C@H](OC(C)=O)[C@@]21C)[C@@]1(C)CCC2(C[C@H]1C[C@H]3OC(C)=O)OOC1(CCC(C)CC1)OO2 (stereo partly drawn) [23/1C32, N-Ethyl-7α,12α-diacetoxy-5β-cholan-24-amide-3-spiro-6′-(1′,2′,4′,5′-tetraoxacyclohexane)-3′-spiro-1″-((4″S)-methyl)cyclohexane]
Strain D6 IC50 [1]: 0.01032 µg/mL
Strain W2 IC50 [2]: 0.00657 µg/mL
Resistance Index [3]: 0.64
% Inhib ([4]; Table 5, Alamar assay): 21%
MIC (M. tuberculosis H37Rv; [5]): >6.25 µg/mL

CCNC(=O)CCC(C)[C@H]1CCC2C3C(C[C@H](OC(C)=O)[C@@]21C)[C@@]1(C)CCC2(C[C@H]1C[C@H]3OC(C)=O)OOC1(CCC(c3ccccc3)CC1)OO2 (single isomer, unassigned) [Compound 1C47, N-Ethyl-7α,12α-Diacetoxy-5β-cholan-24-amide-3-spiro-6′-(1′,2′,4′, 5′-tetraoxacyclohexane)-3′-spiro-1″-((4″R or S)-phenyl)cyclohexane]
Strain D6 IC50 [1]: 0.00541 µg/mL
Strain W2 IC50 [2]: 0.00587 µg/mL
Resistance Index [3]: 1.08
inhibition at 6.25 µg/mL [4, 6]: 50%
inhibition at 6.25 µg/mL [4, 7]: 50%
MIC (M. tuberculosis H37Rv; [8]): > 6.25 µg/mL
MIC (M. tuberculosis H37Rv; [9]): > 6.25 µg/mL

CCC1CCC2(CC1)OOC1(CC[C@]3(C)C4C[C@H](OC(C)=O)[C@@]5(C)C(CC[C@@H]5C(C)CCC(N)=O)C4[C@H](OC(C)=O)C[C@@H]3C1)OO2 (single isomer, unassigned) [29/1C40, 7α,12α-Diacetoxy-5β-cholan-24-amide-3-spiro-6′-(1′,2′,4′,5′-tetraoxacyclohexane)-3′-spiro-1″-((4″S or R)-ethyl)cyclohexane]
Strain D6 IC50 [1]: 0.02012 µg/mL
Strain W2 IC50 [2]: 0.00811 µg/mL
Resistance Index [3]: 0.40
% Inhib ([4]; Table 5, Alamar assay): 100%
MIC (M. tuberculosis H37Rv; [5]): 3.13 µg/mL (≈ 4.83 µM)

CCNC(=O)CCC(C)[C@H]1CCC2C3C(C[C@H](OC(C)=O)[C@@]21C)[C@@]1(C)CCC2(C[C@H]1C[C@H]3OC(C)=O)OOC1(CCC(CC)CC1)OO2 (single isomer, unassigned) [31/1C42, N-Ethyl-7α,12α-Diacetoxy-5β-cholan-24-amide-3-spiro-6′-(1′,2′,4′,5′-tetraoxacyclohexane)-3′-spiro-1″-((4″S or R)-ethyl)cyclohexane]
Strain D6 IC50 [1]: 0.01564 µg/mL
Strain W2 IC50 [2]: 0.01222 µg/mL
Resistance Index [3]: 0.78
% Inhib ([4]; Table 5, Alamar assay): 83%
MIC (M. tuberculosis H37Rv; [5]): >6.25 µg/mL

CCNC(=O)CCC(C)[C@H]1CCC2C3C(C[C@H](OC(C)=O)[C@@]21C)[C@@]1(C)CCC2(C[C@H]1C[C@H]3OC(C)=O)OOC1(CCC(c3ccccc3)CC1)OO2 (single isomer, unassigned) [Compound 1C52, N-Ethyl-7α,12α-Diacetoxy-5β-cholan-24-amide-3-spiro-6′-(1′,2′,4′,5′-tetraoxacyclohexane)-3′-spiro-1″-((4″S or R)-phenyl)cyclohexane]
Strain D6 IC50 [1]: 0.03279 µg/mL
Strain W2 IC50 [2]: 0.03258 µg/mL
Resistance Index [3]: 0.99
Inhibition (%) ([4]; Table 3, H37Rv): 62%
% Inhib ([4]; Table 5, Alamar assay): 62%
MIC (M. tuberculosis H37Rv; Table 3, H37Rv): >6.25 µg/mL
MIC (M. tuberculosis H37Rv; [5]): >6.25 µg/mL

CC(=O)O[C@H]1CC2C(C3CC[C@H](C(C)CCC(=O)O)[C@]31C)[C@H](OC(C)=O)C[C@@H]1CC3(CC[C@]21C)OOC1(CCC(c2ccccc2)CC1)OO3 (single isomer, unassigned) [Compound 1C49, 7α,12α-Diacetoxy-5β-cholan-24-oic acid-3-spiro-6′-(1′,2′,4′,5′-tetraoxacyclohexane)-3′-spiro-1″-((4″S or R)-phenyl)cyclohexane]
Strain D6 IC50 [1]: 0.05424 µg/mL
Strain W2 IC50 [2]: 0.04385 µg/mL
Resistance Index [3]: 0.81
Inhibition (%) ([4]; Table 3, H37Rv): 89%
% Inhib ([4]; Table 5, Alamar assay): 89%
MIC (M. tuberculosis H37Rv; Table 3, H37Rv): >6.25 µg/mL
MIC (M. tuberculosis H37Rv; [5]): >6.25 µg/mL

CC(=O)O[C@H]1CC2C(C3CC[C@H](C(C)CCC(=O)O)[C@]31C)[C@H](OC(C)=O)C[C@@H]1CC3(CC[C@]21C)OOC1(CCC(C)CC1)OO3 (some centres unmarked) [9h/1C18]
Strain D6 IC50 [1]: 0.01974 µg/mL
Strain W2 IC50 [2]: 0.01126 µg/mL
Resistance Index [3]: 0.57
% Inhib ([4]; Table 5, Alamar assay): 34%
MIC (M. tuberculosis H37Rv; [5]): >6.25 µg/mL

CCC1CCC2(CC1)OOC1(CC[C@]3(C)C4C[C@H](OC(C)=O)[C@@]5(C)C(CC[C@@H]5C(C)CCC(=O)O)C4[C@H](OC(C)=O)C[C@@H]3C1)OO2 (single isomer, unassigned) [9i/1C34, 7α,12α-Diacetoxy-5β-cholan-24-oic acid-3-spiro-6′-(1′,2′,4′,5′-tetraoxacyclohexane)-3′-spiro-1″-((4″R or S)-ethyl)cyclohexane]
IC50 [1]: 0.00374 µg/mL (≈ 0.00576 µM)
IC50 [2]: 0.00471 µg/mL (≈ 0.00726 µM)
Resistance Index [3]: 1.26
inhibition at 6.25 µg/mL [4, 7]: 80%
MIC (M. tuberculosis H37Rv; [9]): > 6.25 µg/mL

CCCNC(=O)CCC(C)[C@H]1CCC2C3C(C[C@H](OC(C)=O)[C@@]21C)[C@@]1(C)CCC2(C[C@H]1C[C@H]3OC(C)=O)OOC1(CCC(c3ccccc3)CC1)OO2 (single isomer, unassigned) [Compound 1C48, N-(n-Propyl)-7α,12α-Diacetoxy-5β-cholan-24-amide-3-spiro-6′-(1′,2′,4′,5′-tetraoxacyclohexane)-3′-spiro-1″-((4″R or S)-phenyl)cyclohexane]
Strain D6 IC50 [1]: 0.00659 µg/mL
Strain W2 IC50 [2]: 0.00672 µg/mL
Resistance Index [3]: 1.02
inhibition at 6.25 µg/mL [4, 6]: 46%
inhibition at 6.25 µg/mL [4, 7]: 46%
MIC (M. tuberculosis H37Rv; [8]): > 6.25 µg/mL
MIC (M. tuberculosis H37Rv; [9]): > 6.25 µg/mL

CC(=O)O[C@H]1CC2C(C3CC[C@H](C(C)CCC(N)=O)[C@]31C)[C@H](OC(C)=O)C[C@@H]1CC3(CC[C@]21C)OOC1(CCC(c2ccccc2)CC1)OO3 (single isomer, unassigned) [Compound 1C50, 7α,12α-Diacetoxy-5β-cholan-24-amide-3-spiro-6′-(1′,2′,4′,5′-tetraoxacyclohexane)-3′-spiro-1″-((4″S or R)-phenyl)cyclohexane]
Strain D6 IC50 [1]: 0.04049 µg/mL
Strain W2 IC50 [2]: 0.03746 µg/mL
Resistance Index [3]: 0.92
Inhibition (%) ([4]; Table 3, H37Rv): 87%
% Inhib ([4]; Table 5, Alamar assay): 87%
MIC (M. tuberculosis H37Rv; Table 3, H37Rv): 6.25 µg/mL (≈ 8.98 µM)
MIC (M. tuberculosis H37Rv; [5]): >6.25 µg/mL

COC(=O)CCC(C)[C@H]1CCC2C3C(C[C@H](OC(C)=O)[C@@]21C)[C@@]1(C)CCC2(C[C@H]1C[C@H]3OC(C)=O)OOC1(CC(C)CCC1C(C)C)OO2 (stereo partly drawn) [8f/1B10, Methyl 7α,12α-diacetoxy-5β-cholan-24-oate-3-spiro-6′-(1′,2′,4′,5′-tetraoxacyclohexane)-3′-spiro-1″-(−)-menthane]
IC50 [1]: 0.107 µg/mL (≈ 0.154 µM)
IC50 [2]: 0.0506 µg/mL (≈ 0.0732 µM)
Resistance Index [3]: 0.47
inhibition at 6.25 µg/mL [4, 7]: 0%
MIC (M. tuberculosis H37Rv; [9]): > 6.25 µg/mL

CCCNC(=O)CCC(C)[C@H]1CCC2C3C(C[C@H](OC(C)=O)[C@@]21C)[C@@]1(C)CCC2(C[C@H]1C[C@H]3OC(C)=O)OOC1(CCC(c3ccccc3)CC1)OO2 (single isomer, unassigned) [Compound 1C53, N-(n-Propyl)-7α,12α-Diacetoxy-5β-cholan-24-amide-3-spiro-6′-(1′,2′,4′,5′-tetraoxacyclohexane)-3′-spiro-1″-((4″S or R)-phenyl)cyclohexane]
Strain D6 IC50 [1]: 0.02428 µg/mL
Strain W2 IC50 [2]: 0.02454 µg/mL
Resistance Index [3]: 1.01
Inhibition (%) ([4]; Table 3, H37Rv): 59%
% Inhib ([4]; Table 5, Alamar assay): 59%
MIC (M. tuberculosis H37Rv; Table 3, H37Rv): >6.25 µg/mL
MIC (M. tuberculosis H37Rv; [5]): >6.25 µg/mL

COC(=O)CCC(C)[C@H]1CCC2C3C(C[C@H](OC(C)=O)[C@@]21C)[C@@]1(C)CCC2(C[C@H]1C[C@H]3OC(C)=O)OOC1(CCCCC1)OO2 (stereo partly drawn) [8b/1B05, Methyl 7α,12α-Diacetoxy-5β-cholan-24-oate-3-spiro-6′-(1′,2′,4′,5′-tetraoxacyclohexane)-3′-spirocyclohexane]
IC50 [1]: 0.0136 µg/mL (≈ 0.0215 µM)
IC50 [2]: 0.0108 µg/mL (≈ 0.017 µM)
Resistance Index [3]: 0.79
inhibition at 6.25 µg/mL [4, 7]: 0%
MIC (M. tuberculosis H37Rv; [9]): > 6.25 µg/mL

COC(=O)CCC(C)[C@H]1CCC2C3C(C[C@H](OC(C)=O)[C@@]21C)[C@@]1(C)CCC2(C[C@H]1C[C@H]3OC(C)=O)OOC1(CCC(C(C)(C)C)CC1)OO2 (single isomer, unassigned) [8l/1B09b, Methyl 7α,12α-diacetoxy-5β-cholan-24-oate-3-spiro-6′-(1′,2′,4′,5′-tetraoxacyclohexane)-3′-spiro-1″-(4″R or S)- and (4″S or R)-t-butyl)cyclohexane]
Strain D6 IC50 [1]: 0.03584 µg/mL
Strain W2 IC50 [2]: 0.01919 µg/mL
Resistance Index [3]: 0.54
times more active than bis(1,1-dioxy-4-tert-butylcyclohexane) ([3]; antimalarial activity versus literature tetraoxane): ca. 3.7 times
% Inhib ([4]; Table 5, Alamar assay): 0%
MIC (M. tuberculosis H37Rv; [5]): >6.25 µg/mL
